Assay results taken from the supplement of paper PMC10307832.

Each cell line was assayed with C1CC(C2=C(C1)C3=C(N2)C=CC(=C3)Cl)C(=O)N [Selisistat] + CC(=O)Nc1cccc(-n2c(=O)n(C3CC3)c(=O)c3c(Nc4ccc(I)cc4F)n(C)c(=O)c(C)c32)c1 [Trametinib] (partner 0.02 µM) (assay: relative viability (nuclei count vs DMSO), 5 days (fraction); higher = more cells survive). Settings: first compound 0.4 µM.
How it was run: (§1)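 Lung cancer cell lines, seeded in 1536-well plates, were treated the following day by pin tool with a single drug or with five library-drug doses (not always all listed) in √10 steps on top of a fixed anchor-drug dose. Cells were fixed and nuclei stained in one step after 5 days, and nuclei were counted. Relative viability is the nuclei count for treated wells divided by that for vehicle wells, reported as medians of duplicate plates.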

Cell Line | relative viability
HCC-44 | 1.1
LU99A | 0.596
BEN | 1.05
HARA | 0.659
HCC-78 | 0.783
NCI-H322M | 0.483
LCLC-97TM1 | 0.192
NCI-H2009 | 0.285
A-427 | 0.842
NCI-H441 | 0.455
NCI-H661 | 0.522
NCI-H1734 | 0.714
NCI-H460 | 0.129
NCI-H2347 | 0.266
SK-LU-1 | 0.598
201T | 0.761
NCI-H1915 | 0.348

Cell Line | relative viability
HCC-827 | 0.529
LXF-289 | 0.72
NCI-H23 | 0.402
NCI-H647 | 0.467
NCI-H1651 | 0.855
EPLC-272H | 0.294
NCI-H1792 | 0.493
NCI-H1355 | 0.422
NCI-H3122 | 0.199
NCI-H1437 | 0.558
NCI-H1755 | 0.83
NCI-H2023 | 0.608
HCC-15 | 0.453
PC-14 | 0.723
EKVX | 0.383
LC-2-ad | 0.973
NCI-H1975 | 0.371

Same assay, conditions: first compound 1.265 µM

Cell Line | relative viability
HCC-44 | 1.22
LU99A | 0.561
BEN | 0.882
HARA | 0.962
HCC-78 | 0.779
NCI-H322M | 0.575
LCLC-97TM1 | 0.208
NCI-H2009 | 0.278
A-427 | 0.801
NCI-H441 | 0.432
NCI-H661 | 0.541
NCI-H1734 | 0.674
NCI-H460 | 0.128
NCI-H2347 | 0.245
SK-LU-1 | 0.503
201T | 0.655
NCI-H1915 | 0.307

Cell Line | relative viability
HCC-827 | 0.575
LXF-289 | 0.727
NCI-H23 | 0.318
NCI-H647 | 0.457
NCI-H1651 | 0.871
EPLC-272H | 0.287
NCI-H1792 | 0.38
NCI-H1355 | 0.462
NCI-H3122 | 0.258
NCI-H1437 | 0.485
NCI-H1755 | 0.883
NCI-H2023 | 0.473
HCC-15 | 0.433
PC-14 | 0.655
EKVX | 0.392
LC-2-ad | 0.96
NCI-H1975 | 0.358

Same assay, conditions: first compound 4 µM

Cell Line | relative viability
HCC-44 | 1.13
LU99A | 0.552
BEN | 0.896
HCC-78 | 0.696
NCI-H2009 | 0.287
NCI-H441 | 0.363
NCI-H661 | 0.442
NCI-H1734 | 0.656
NCI-H460 | 0.0976
SK-LU-1 | 0.546
201T | 0.71
NCI-H1915 | 0.318
HCC-827 | 0.546
LXF-289 | 0.646
NCI-H647 | 0.449
NCI-H1651 | 0.799
NCI-H1355 | 0.422
NCI-H1437 | 0.488
NCI-H1755 | 0.783
NCI-H2023 | 0.607
PC-14 | 0.823
EKVX | 0.324
LC-2-ad | 0.898
NCI-H1975 | 0.262

Same assay, conditions: first compound 12.65 µM

Cell Line | relative viability
HCC-44 | 1.07
LU99A | 0.52
BEN | 1.03
HARA | 0.509
HCC-78 | 0.744
NCI-H322M | 0.567
LCLC-97TM1 | 0.163
NCI-H2009 | 0.259
A-427 | 0.776
NCI-H441 | 0.398
NCI-H661 | 0.502
NCI-H1734 | 0.694
NCI-H460 | 0.117
NCI-H2347 | 0.298
SK-LU-1 | 0.51
201T | 0.691
NCI-H1915 | 0.297

Cell Line | relative viability
HCC-827 | 0.572
LXF-289 | 0.69
NCI-H23 | 0.427
NCI-H647 | 0.472
NCI-H1651 | 0.842
EPLC-272H | 0.284
NCI-H1792 | 0.44
NCI-H1355 | 0.438
NCI-H3122 | 0.3
NCI-H1437 | 0.5
NCI-H1755 | 0.764
NCI-H2023 | 0.47
HCC-15 | 0.37
PC-14 | 0.825
EKVX | 0.379
LC-2-ad | 0.662
NCI-H1975 | 0.329

Same assay, conditions: first compound 40 µM

Cell Line | relative viability
HCC-44 | 1.05
LU99A | 0.575
BEN | 0.957
HARA | 0.377
HCC-78 | 0.732
NCI-H322M | 0.545
LCLC-97TM1 | 0.217
NCI-H2009 | 0.282
A-427 | 0.775
NCI-H441 | 0.452
NCI-H661 | 0.45
NCI-H1734 | 0.718
NCI-H460 | 0.142
NCI-H2347 | 0.285
SK-LU-1 | 0.444
201T | 0.749
NCI-H1915 | 0.342

Cell Line | relative viability
HCC-827 | 0.559
LXF-289 | 0.731
NCI-H23 | 0.485
NCI-H647 | 0.474
NCI-H1651 | 0.817
EPLC-272H | 0.33
NCI-H1792 | 0.44
NCI-H1355 | 0.43
NCI-H3122 | 0.213
NCI-H1437 | 0.477
NCI-H1755 | 0.841
NCI-H2023 | 0.573
HCC-15 | 0.468
PC-14 | 0.671
EKVX | 0.48
LC-2-ad | 0.95
NCI-H1975 | 0.33

The cell lines below were run with c1ccc2c(CCNc3ccc(Nc4ccncc4)cc3)c[nH]c2c1 [Serdemetan] + C[C@@H](Oc1cc(-c2cnn(C3CCNCC3)c2)cnc1N)c1c(Cl)ccc(F)c1Cl [Crizotinib] (partner 1 µM) in the same assay as above. Settings: first compound 0.04 µM.
How it was run: as §1

Cell Line | relative viability
HCC-44 | 0.766
LU99A | 0.521
BEN | 0.826
HARA | 0.856
HCC-78 | 0.342
NCI-H322M | 0.917
LCLC-97TM1 | 0.361
NCI-H2009 | 1
A-427 | 0.919
NCI-H441 | 0.721
NCI-H661 | 1.01
NCI-H1734 | 0.61
NCI-H460 | 0.842
NCI-H2347 | 0.673
SK-LU-1 | 0.813
201T | 1.05
NCI-H1915 | 0.86

Cell Line | relative viability
HCC-827 | 0.948
LXF-289 | 0.754
NCI-H23 | 0.519
NCI-H647 | 0.978
NCI-H1651 | 0.82
EPLC-272H | 0.939
NCI-H1792 | 0.947
NCI-H1355 | 0.97
NCI-H3122 | 0.292
NCI-H1437 | 0.835
NCI-H1755 | 0.83
NCI-H2023 | 0.688
HCC-15 | 0.795
PC-14 | 0.899
EKVX | 0.899
LC-2-ad | 0.455
NCI-H1975 | 0.91

Same assay, conditions: first compound 0.1265 µM

Cell Line | relative viability
HCC-44 | 0.828
LU99A | 0.529
BEN | 0.864
HARA | 0.971
HCC-78 | 0.325
NCI-H322M | 0.93
LCLC-97TM1 | 0.314
NCI-H2009 | 0.966
A-427 | 0.789
NCI-H441 | 0.713
NCI-H460 | 0.866
NCI-H2347 | 0.699
SK-LU-1 | 0.899
201T | 1.03
NCI-H1915 | 0.887
HCC-827 | 0.867

Cell Line | relative viability
LXF-289 | 0.776
NCI-H23 | 0.421
NCI-H647 | 1.16
NCI-H1651 | 0.79
EPLC-272H | 0.692
NCI-H1792 | 0.926
NCI-H1355 | 1
NCI-H3122 | 0.241
NCI-H1437 | 1.03
NCI-H1755 | 0.768
NCI-H2023 | 0.644
HCC-15 | 0.852
PC-14 | 0.87
EKVX | 0.894
LC-2-ad | 0.429
NCI-H1975 | 0.934

Same assay, conditions: first compound 0.4 µM

Cell Line | relative viability
HCC-44 | 0.71
LU99A | 0.317
BEN | 0.944
HARA | 0.966
HCC-78 | 0.322
NCI-H322M | 0.859
LCLC-97TM1 | 0.351
NCI-H2009 | 0.912
A-427 | 0.662
NCI-H441 | 0.649
NCI-H661 | 0.977
NCI-H1734 | 0.196
NCI-H460 | 0.836
NCI-H2347 | 0.674
SK-LU-1 | 0.82
201T | 0.948
NCI-H1915 | 0.833

Cell Line | relative viability
LXF-289 | 0.719
NCI-H23 | 0.549
NCI-H647 | 0.983
NCI-H1651 | 0.793
EPLC-272H | 0.868
NCI-H1792 | 0.867
NCI-H1355 | 1.02
NCI-H3122 | 0.28
NCI-H1437 | 0.786
NCI-H1755 | 0.767
NCI-H2023 | 0.452
HCC-15 | 0.743
PC-14 | 0.793
EKVX | 0.913
LC-2-ad | 0.39
NCI-H1975 | 0.937

Same assay, conditions: first compound 1.265 µM

Cell Line | relative viability
HCC-44 | 0.54
LU99A | 0.187
BEN | 0.759
HCC-78 | 0.321
NCI-H322M | 0.917
LCLC-97TM1 | 0.233
NCI-H2009 | 0.803
A-427 | 0.287
NCI-H441 | 0.487
NCI-H1734 | 0.144
NCI-H460 | 0.154
NCI-H2347 | 0.506
SK-LU-1 | 0.679
201T | 0.927
NCI-H1915 | 0.709
HCC-827 | 0.791

Cell Line | relative viability
LXF-289 | 0.637
NCI-H23 | 0.513
NCI-H647 | 0.583
NCI-H1651 | 0.462
EPLC-272H | 0.612
NCI-H1792 | 0.939
NCI-H1355 | 1.06
NCI-H1437 | 0.778
NCI-H1755 | 0.323
NCI-H2023 | 0.286
HCC-15 | 0.584
PC-14 | 0.649
EKVX | 0.897
LC-2-ad | 0.394
NCI-H1975 | 0.804

Same assay, conditions: first compound 4 µM

Cell Line | relative viability
HCC-44 | 0.599
LU99A | 0.17
BEN | 0.64
HARA | 0.601
HCC-78 | 0.322
NCI-H322M | 0.585
LCLC-97TM1 | 0.189
NCI-H2009 | 0.956
A-427 | 0.404
NCI-H441 | 0.596
NCI-H661 | 0.987
NCI-H1734 | 0.155
NCI-H460 | 0.075
NCI-H2347 | 0.0688
SK-LU-1 | 0.712
201T | 0.879
NCI-H1915 | 0.59
HCC-827 | 0.615
LXF-289 | 0.689
NCI-H23 | 0.321
NCI-H647 | 0.637
NCI-H1651 | 0.356
EPLC-272H | 0.837
NCI-H1792 | 0.603
NCI-H1355 | 0.781
NCI-H3122 | 0.237
NCI-H1437 | 0.8
NCI-H1755 | 0.428
NCI-H2023 | 0.237
HCC-15 | 0.58
